What was measured:
[1] = Solubility enhancement of AKBA by surfactants (UV-Visible); format: physicochemical; conditions: pH 6.8 phosphate buffer; 100 mg AKBA in 10 mL; shaken at least 72 hours at 37° C.; 0.20 micron filter
Procedure: Evaluation of Solubility Enhancement Capability of Surfactants for Solubilizing AKBA.
100 mg of AKBA was placed in a 10 mL cuvette, followed by the desired amount of surfactant to be studied to give the desired ratio of materials. Powder surfactants were measured directly into the cuvette in the amounts of 10 mg, 25 mg and 50 mg. Liquid surfactants were added by making a solution of 1.25 gm of surfactant in 250 ml of buffer, and then adding 2 ml, 5 ml, or 10 ml of the buffer solution to add 10 mg, 25 mg and 50 mg of the surfactant. A pH 6.8 phosphate buffer was added as needed to bring the volume up to 10 mL. After all material was added to the cuvette, the cuvette was sealed, sonicated for 2 hours on two separate occasions and then shaken for at least 72 hours at 37° C. The resulting material was filtered through a 0.20 micron filter and analyzed by UV-Visible spectroscopy to determine the AKBA content.

[2] = Solubility enhancement of AKBA by polymer carriers (thermal binders) (UV-Visible); format: physicochemical; conditions: pH 6.8 phosphate buffer; 20 mg AKBA in 10 mL; shaken at least 72 hours at 37° C.; 0.45 micron filter
Procedure: Evaluation of Solubility Enhancement Capability of Polymer Carriers (Thermal Binders) for Solubilizing AKBA.
20 mg of AKBA was placed in a 10 mL cuvette, followed by the desired amount of polymer carriers to be studied to give the desired ratio of materials. A pH 6.8 phosphate buffer was added as needed to bring the volume up to 10 mL. After all material was added to the cuvette, the cuvette was sealed, sonicated for 2 hours on two separate occasions and then shaken for at least 72 hours at 37° C. The resulting material was filtered through a 0.45 micron filter and analyzed by UV-Visible spectroscopy to determine the AKBA content.

[3] = Solubility enhancement of AKBA by combination of polymer carriers and surfactants (UV-Visible); format: physicochemical; conditions: pH 6.8 phosphate buffer; 20 mg AKBA in 10 mL; shaken at least 72 hours at 37° C.; 0.45 micron filter
Procedure: Evaluation of Solubility Enhancement Capability of the Combination of Polymer Carriers (Thermal Binders) and Surfactants for Solubilizing AKBA.
20 mg of AKBA was placed in a 10 mL cuvette, followed by the desired amount of polymer carriers and/or surfactants to be studied to give the desired ratio of materials. A pH 6.8 phosphate buffer was added as needed to bring the volume up to 10 mL. […] The resulting material was filtered through a 0.45 micron filter and analyzed by UV-Visible spectroscopy to determine the AKBA content.

[4] = Dissolution testing under non-sink conditions (USP XXIX method A enteric dissolution test); format: physicochemical; conditions: pH 6.8 buffer, read from FIG. 6
Procedure: Dissolution tests were performed with a dissolution apparatus (VK 7000 Dissolution Tester with a VK 8000 Autosampler). The testing was carried out according to a published method (USP XXIX method A enteric dissolution test); non-sink conditions were maintained throughout the testing using 1 L of final neutral media. The solution of 0.1N HCl (pH of 1.2) with a formulation present was stirred at 50 rpm for 2 hours and then the solution was converted to 0.2M Phosphate Buffer (pH of 6.8) and stirring continued up to 12 hours. At times of 60, 120, 125, 135, 150, 165, 180, 210, 240, 300, 360, 480, and 720 minutes, three×5 mL samples were removed and analyzed for soluble AKBA.

[5] = Bioavailability (pharmacokinetic) study of AKBA formulations, oral gavage; format: in vivo, Sprague-Dawley rats; conditions: rat, dose equivalent to 50 mg/kg AKBA, * statistically significant
Procedure: A study was performed to evaluate the pharmacokinetic parameters of AKBA compositions. For the study, adult male Sprague-Dawley rats (275-300 grams, 63-67 days) were caged individually and maintained on a normal rodent chow diet with free access to water. Rats were randomly divided into groups of 4 rats with each group receiving one formulation. Prior to dosing, each formulation was reconstituted in deionised water. The formulations were administered as a dose equivalent to 50 mg/kg AKBA. Each formulation was delivered by 1 mL oral gavage via a pharyngeal tube such that each group of 4 rats received a different formulation. Each formulation was administered to dose AKBA at a concentration of 15 mg/l mL to prevent spontaneous release through the pyloric sphincter (volumetric dose below 4 mL/kg body weight).
The administered formulations were: […]
The catheters of the rats were flushed daily with 300 μL of 50 U/mL heparinized normal saline. Blood samples of approximately 300 μL were collected from the jugular vein catheter at 0, 0.5, 1, 1.5, 2, 2.5, 3, 3.5, 4, 4.5, 5, 5.5, 6 and 8 hours after dosing using a 1 mL syringe and attached […] needle. Blood was slowly extracted into the needle through the catheter. The blood samples were placed into preheparinized 1.5 mL microcentrifuge tubes. Withdrawn blood was replaced with equal volumes of heparinized saline by injecting through the jugular vein catheter. The bioavailability of the API was then determined by monitoring the API levels in the blood over time.

Question: For `CC(=O)O[C@@H]1CC[C@@]2(C)[C@@H](CC[C@]3(C)[C@@H]2C(=O)C=C2[C@@H]4[C@@H](C)[C@H](C)CC[C@]4(C)CC[C@]23C)[C@@]1(C)C(=O)O` [AKBA, acetyl-11-keto-β-boswellic acid], which “AKBA solubility, mcg/mL Buffer (Material - Surfactants)” value [1] is on record?
Answer: 0.01 µg/mL

Question: What about the “AKBA solubility, mcg/mL Buffer (Material - Polymer Carriers)” value [2] of the same compound?
Answer: 7.27 µg/mL

Question: And the “AKBA solubility, mcg/mL Buffer (Material - Combination of Surfactants and Polymer Carriers)” value [3]?
Answer: 8.46 µg/mL

Question: What about the peak solubility [4] of the same compound?
Answer: about 2 μg/ml

Question: What about the “Average of AUC” value [5] of the same compound?
Answer: 0.71* ± 0.24 μg-hr/mL

Question: And the “Average of Cmax” value [5]?
Answer: 0.35* ± 0.12 μg/mL

Question: And the “Average of Tmax” value [5]?
Answer: 4.75* ± 1.55 hours

Question: And the “Average of t1/2” value [5]?
Answer: 2.30 ± 1.43 h
